Measurements: patent US4967772A, “Tobacco smoking article and treatment of tobacco smoke with at least one alcohol” (C.A. Blockers, Inc., priority 1987, dated 1990)

Columns and labels:
bronchial epithelium = assay: Whole-body autoradiography of [14C] NNN after inhalation of cyclohexanol vapor; type: in vivo, C57BL/6J mouse; conditions: 5 min inhalation
Experimental: The mouse was kept in the closed beaker for about five minutes as the bottom of the beaker was maintained at 50° C. in a water bath. […] Handbook of Chemistry and Physics (1979) at D-203 to D-217, which is incorporated herein in its entirety.
One hour later, the mouse was anesthetized lightly by ether and frozen by immersion in dry ice/hexane. […] Control experiments were conducted for comparison purposes and radioactivity was detected in the respiratory epithelium in the controls.
Example 2 was duplicated, except that the mouse was kept in the closed beaker for five minutes as the bottom of the beaker was maintained at 20° C. in a water bath. […] After injection as in Example 2, the mouse was processed in the same manner as in Example 2.

[1] = tested on: malignant growth and tumor development; conditions: cited from earlier work
nitrosamine localization [2] = assay: Inhibition of selective localization of nitrosamines (delocalization), general statement; type: in vivo
From the text: The alcohols which are operable according to the invention include alcohols having two or more carbons. However, it is preferable to use alcohols having alkyl groups of at least three carbons or greater. The alkyl groups may have a straight-chain or branched chain structure. Moreover, the alkyl groups may have a cyclic or acyclic structure.

epithelial membranes = conditions: cited from earlier work
[3] = Whole-body autoradiography: localization of [14C] NNN radioactivity in bronchial epithelium after oral alcohol pretreatment; type: in vivo, male C57BL/6J mice
Experimental: (§1) One hour later, the mice were anesthetized lightly with ether and frozen by immersion in dry ice/hexane. Twenty u-thick whole-body sagittal sections of the frozen mice were taken onto Scotch tape and were then processed for whole-body autoradiography by known methods. See W. Waddell et al, Drug Fate and Metabolism: Methods and Techniques. E.R. Garrett and J.L. Hirtz, Eds. […] Photometric density in areas of the developed autoradiographs was measured with an ADG Instruments photometer and a photocell with an aperture of three mm lying on the easel of a photographic enlarger. The X-ray film was placed in the enlarger and raised to produce a magnification of thirty-five times on the easel.
(§2) NNN. […] (Twenty minutes is the average time it takes for alcohols introduced by oral intubation in mice to reach the peak blood level.)
(§3) The number within each bar thereof represents the dose in g/kg of the alcohol which was administered orally twenty minutes before the [^14 C] NNN was given intravenously. The mice were frozen one hour after receiving the [^14 C] NNN. The means for each mouse were from fifteen measurements on random areas of that site (five absorbancies on each of three autoradiographs) after setting blood in each on zero. The control value is the mean from six mice; the n-butanol at one g/kg is from two mice; and the other means are from one mouse.

liver = conditions: oral 20 min before i.v. [14C] NNN; ethanol 1 and 5 g/Kg, n- and t-butanol 0.2 and 1 g/Kg; 1 h
Experimental: as §1, §2, §3

salivary duct epithelium = conditions: oral 20 min before i.v. [14C] NNN; ethanol 1 and 5 g/Kg, n-butanol 0.2 and 1 g/Kg; 1 h
Experimental: as §1, §2, §3

rats = conditions: cited from earlier work
adult human = conditions: per kg body weight; cited from earlier work
rodents = conditions: cited from earlier work; for carcinogenicity: N-nitroso derivatives of tobacco alkaloids
F-344 rats = conditions: NNN in drinking water; cited from earlier work
tissues of the body = conditions: [14C] NNN, adult male C57BL/6J mice; cited from earlier work
F-344 rat esophagus = conditions: in contrast to other tissues; cited from earlier work
nitrosamine localization [4] = assay: Whole-body autoradiography of [14C] NNN after intraperitoneal imidazole; type: in vivo, male C57BL/6J mouse; conditions: 20 min before i.v. [14C] NNN, vs control mouse
Experimental: An adult male C57BL/6J mouse was injected intraperitoneally with 0.02 ml/g body weight of a solution of imidazole in water. The imidazole solution concentration was such that 0.05 g of imidazole was delivered per kg of body weight. […] See Example 1.
Example 4 was duplicated except that the adult mouse was injected intraperitoneally with 0.02 ml/g body weight of a solution of imidazole in water, wherein the solution concentration was such that 0.25 g of imidazole was delivered per kg of body weight.

OC1CCCCC1 [cyclohexanol]
radioactivity in bronchial epithelium (bronchial epithelium; 20° C., 0.001% cyclohexanol in air): No radioactivity was detected in any part of the bronchial epithelium
radioactivity in bronchial epithelium (bronchial epithelium; 50° C., 0.01% cyclohexanol in air): No radioactivity was detected in any part of the bronchial epithelium

Vitamin A
malignant growth [1]: suppress malignant growth

C[S+](C)[O-] [dimethylsulfoxide (DMSO), dimethylsulfoxide]
delocalization of nitrosamines (nitrosamine localization [2]): found to delocalize nitrosamines

O=C1O[C@H]([C@@H](O)CO)C(O)=C1O [Vitamin C]
formation of nitrosamines on epithelial membranes (epithelial membranes): prevent the formation of nitrosamines on epithelial membranes

Vitamin E
formation of nitrosamines on epithelial membranes (epithelial membranes): prevent the formation of nitrosamines on epithelial membranes

CCO [ethanol]
localization of radioactivity in bronchial epithelium ([3]; oral 20 min before i.v. [14C] NNN, ethanol 1 and 5 g/Kg, n-butanol 0.2 and 1 g/Kg, 1 h): reduced by pretreatment
localization of radioactivity in periportal and central areas of the liver (liver): reduced by pretreatment
localization of radioactivity in salivary duct epithelium (salivary duct epithelium): reduced by pretreatment

CCCCC(CC)CO (stereo not shown) [2-ethyl hexanol]
Acute Oral LD50 rats (rats; rat, in vivo, po): 3200 to 7100 mg/kg

CN1CCCC1c1cccnc1 (stereo not shown) [nicotine]
estimated acutely fatal oral dose (adult human): 1 mg/kg

CN(CCCC(=O)c1cccnc1)N=O [NNK, 4-N-methyl-N-nitrosamino)-1-(3-pyridyo-1-butano]
carcinogenicity (rodents): powerful environmental carcinogens

c1cn[nH]c1 [pyrazole]
delocalization of nitrosamines (nitrosamine localization [2]): found to delocalize nitrosamines

CC(C)(C)O [t-butanol]
inhibition in bronchial epithelium (FIG. 1), ranking ([3]; from inspection of FIG. 1, oral pretreatment): greatest inhibition
localization of [14C] NNN in bronchial epithelium ([3]; high dosage (t-butanol 1 g/Kg oral), 20 min before i.v. [14C] NNN): almost completely abolished

S=C=NCc1ccccc1 [benzylisothiocyanate]
delocalization of nitrosamines (nitrosamine localization [2]): found to delocalize nitrosamines

O=NN1CCCC1c1cccnc1 (stereo not shown) [NNN, N'-Nitrosonoronicotine]
esophageal tumors (F-344 rats): esophageal tumors have been induced
retention of radioactivity versus sites of tumor formation (tissues of the body): striking correlation of the retention of radioactivity with the previously reported sites of tumor formation
hydroxylation at the a-carbon of NNN adjacent to the pyridine ring (F-344 rat esophagus): preferentially catalyzes hydroxylation at the a-carbon of NNN adjacent to the pyridine ring
carcinogenicity (rodents): powerful environmental carcinogens
sites of tumor formation (rodents; in vivo): typically induces tumor formation at five sites, namely the nasal cavity, salivary duct, esophagus, bronchial epithelium and the liver
carcinogenesis in olfactory epithelium, lung, salivary glands (rodents; rodents): known to induce carcinogenesis in the olfactory epithelium, lung, salivary glands

[Se] [Selenium]
tumor development [1]: inhibit tumor development

c1c[nH]cn1 [imidazole]
nitrosamine delocalization (nitrosamine localization [4]; 0.05 g/kg imidazole i.p.): Significant nitrosamine delocalization
delocalization of nitrosamine (nitrosamine localization [4]; 0.25 g/kg imidazole i.p.): significant delocalization of nitrosamine
delocalization of nitrosamines (nitrosamine localization [2]): found to delocalize nitrosamines

[Cl-].[Na+] [sodium chloride, reference compound]
LD50 (rats; acute oral, rats): about 3.75 g/Kg

CC1=C(/C=C/C(C)=C/C=C/C(C)=C/CO)C(C)(C)CCC1 [retinol, reference compound]
inhibition of nitrosamine localization (nitrosamine localization [2]): does not inhibit nitrosamine localization
